In publication PMC9525273 (Nature Communications, 2022):
Several values for one entry are separate records, joined by “and”; a condition that tells them apart may be missing. Equal values may be shown once. Read-outs that look alike come from different tables or passages of the source.

Legend:
Experiment in all cases: [Na+]cyt measurement (SBFI), Na+ dysregulation
Set-up in all cases: Final [Na+]cyt reached: unit not given here
[1] = tested on: isolated Dd2-Polδ P. falciparum trophozoites; assay type: cell-based, Plasmodium falciparum; conditions: for Final [Na+]cyt reached: Dd2-Polδ; for IC50: Plasmodium falciparum
Experimental: (§1) The ratio of the fluorescence intensity recorded at 340 nm and 380 nm (with an emission wavelength of 515 nm) was converted to [Na^+]cyt using a calibration procedure that entailed suspending parasites in solutions of varying [Na^+] containing ionophores. Fluorescence measurements and calibrations were performed at 37 °C, either with individual 1 mL suspensions using a PerkinElmer LS 50B fluorescence spectrometer (for resting [Na^+]cyt measurements for which the data are shown in Supplementary Fig. 7) or in 96-well plates using a Tecan Infinite M1000 PRO plate reader with i-control (version 1.12) software (all other [Na^+]cyt measurements).

[2] = tested on: isolated Dd2-Polδ-PfATP4^G358S P. falciparum trophozoites; assay type: cell-based, Plasmodium falciparum
Experimental: as §1

[3] = tested on: extracellular T. gondii tachyzoites expressing TgATP4^G419S-HA; assay type: cell-based, Toxoplasma gondii; conditions: TgATP4G419S-HA; for IC50: Toxoplasma gondii
[4] = [cipargamin] 62.5 nM, single experiments
[5] = [cipargamin] 250 nM, single experiments

C[C@H]1Cc2c([nH]c3cc(Cl)c(F)cc23)[C@@]2(N1)C(=O)Nc1ccc(Cl)cc12 [Cipargamin]
Final [Na+]cyt reached ([1]; [cipargamin] 0.06 nM, MEAN): 13.0
Final [Na+]cyt reached ([1]; [cipargamin] 0.12 nM, MEAN): 12.3
Final [Na+]cyt reached ([1]; [cipargamin] 0.244 nM, MEAN): 15.5
Final [Na+]cyt reached ([1]; [cipargamin] 0.5 nM, MEAN): 26.2
Final [Na+]cyt reached ([1]; [cipargamin] 1.0 nM, MEAN): 27.3
Final [Na+]cyt reached ([1]; [cipargamin] 2.0 nM, MEAN): 45.7
Final [Na+]cyt reached ([1]; [cipargamin] 3.9 nM, MEAN): 57.4
Final [Na+]cyt reached ([1]; [cipargamin] 7.8 nM, MEAN): 88.5
Final [Na+]cyt reached ([1]; [cipargamin] 15.6 nM, MEAN): 98.7
Final [Na+]cyt reached ([1]; [cipargamin] 31.3 nM, MEAN): 113.1
Final [Na+]cyt reached ([1]; [cipargamin] 62.5 nM, MEAN): 115.1
Final [Na+]cyt reached [1, 4]: 78.0 and 146.2 and 96.4 and 129.7 and 125.5
Final [Na+]cyt reached ([1]; [cipargamin] 250 nM, MEAN): 115.9
Final [Na+]cyt reached [1, 5]: 94.4 and 105.7 and 130.4 and 132.9
IC50 ([1]; DD2, 1.5 h, pH 7.1, Dd2-Polδ, ~90 min exposure, 37 °C, pH 7.1, mean ± SEM, read-out: IC50 for Na+ dysregulation): 8.4 ± 3 nM
IC50 ([1]; DD2, Dd2-Polδ, MEAN, source data of Table 1 (nM there), read-out: IC50 for Na+ dysregulation, MEAN): 8.38 nM
Final [Na+]cyt reached ([2]; Dd2-Polδ-PfATP4G358S, [cipargamin] 4.9 nM, MEAN): 28.1
Final [Na+]cyt reached ([2]; Dd2-Polδ-PfATP4G358S, [cipargamin] 4.9 nM, single experiments): 19.9 and 30.8 and 33.6
Final [Na+]cyt reached ([2]; Dd2-Polδ-PfATP4G358S, [cipargamin] 9.8 nM, MEAN): 23.6
Final [Na+]cyt reached ([2]; Dd2-Polδ-PfATP4G358S, [cipargamin] 19.5 nM, MEAN): 24.9
Final [Na+]cyt reached ([2]; Dd2-Polδ-PfATP4G358S, [cipargamin] 39.1 nM, MEAN): 26.7
Final [Na+]cyt reached ([2]; Dd2-Polδ-PfATP4G358S, [cipargamin] 78.1 nM, MEAN): 27.0
Final [Na+]cyt reached ([2]; Dd2-Polδ-PfATP4G358S, [cipargamin] 156.3 nM, MEAN): 28.5
Final [Na+]cyt reached ([2]; Dd2-Polδ-PfATP4G358S, [cipargamin] 312.5 nM, MEAN): 31.8
Final [Na+]cyt reached ([2]; Dd2-Polδ-PfATP4G358S, [cipargamin] 625 nM, MEAN): 35.9
Final [Na+]cyt reached ([2]; Dd2-Polδ-PfATP4G358S, [cipargamin] 2500 nM, MEAN): 55.3
Final [Na+]cyt reached ([2]; Dd2-Polδ-PfATP4G358S, [cipargamin] 5000 nM, MEAN): 78.8
Final [Na+]cyt reached ([2]; Dd2-Polδ-PfATP4G358S, [cipargamin] 10000 nM, MEAN): 93.3
IC50 ([2]; Dd2-Polδ-PfATP4G358S, single experiments, source data of Table 1 (nM there), read-out: IC50 for Na+ dysregulation): > 2500 nM and 3420 nM and 2100 nM and 3020 nM
IC50 ([2]; Plasmodium falciparum, DD2, 1.5 h, pH 7.1, Dd2-Polδ-PfATP4G358S, ~90 min exposure, 37 °C, pH 7.1, read-out: IC50 for Na+ dysregulation): > 2000 nM
IC50 ([2]; Plasmodium falciparum, DD2, Dd2-Polδ-PfATP4G358S, MEAN, source data of Table 1 (nM there), read-out: IC50 for Na+ dysregulation, MEAN): > 2000 nM
IC50 ([2]; Plasmodium falciparum, DD2, Dd2-Polδ-PfATP4G358S, single experiments, source data of Table 1 (nM there), read-out: IC50 for Na+ dysregulation): 3540 nM
Final [Na+]cyt reached ([3]; [cipargamin] 7.8 nM, MEAN): 14.1
Final [Na+]cyt reached ([3]; [cipargamin] 7.8 nM, single experiments): 13.4 and 14.3 and 14.5
Final [Na+]cyt reached ([3]; [cipargamin] 15.6 nM, MEAN): 15.4
Final [Na+]cyt reached ([3]; [cipargamin] 15.6 nM, single experiments): 14.1 and 15.1 and 17.0
Final [Na+]cyt reached ([3]; [cipargamin] 31.3 nM, MEAN): 15.4
Final [Na+]cyt reached ([3]; [cipargamin] 31.3 nM, single experiments): 13.9 and 14.5 and 17.9
Final [Na+]cyt reached ([3]; [cipargamin] 62.5 nM, MEAN): 14.3
Final [Na+]cyt reached [3, 4]: 13.2 and 14.1 and 15.7
Final [Na+]cyt reached ([3]; [cipargamin] 250 nM, MEAN): 13.7
Final [Na+]cyt reached [3, 5]: 13.6 and 14.5 and 12.9
Final [Na+]cyt reached ([3]; [cipargamin] 500 nM, MEAN): 14.5
Final [Na+]cyt reached ([3]; [cipargamin] 500 nM, single experiments): 12.6 and 13.5 and 17.5
Final [Na+]cyt reached ([3]; [cipargamin] 1000 nM, MEAN): 16.4
Final [Na+]cyt reached ([3]; [cipargamin] 1000 nM, single experiments): 14.3 and 16.7 and 18.1
Final [Na+]cyt reached ([3]; [cipargamin] 2000 nM, MEAN): 17.1
Final [Na+]cyt reached ([3]; [cipargamin] 2000 nM, single experiments): 13.3 and 17.0 and 20.8
Final [Na+]cyt reached ([3]; [cipargamin] 4000 nM, MEAN): 24.3
Final [Na+]cyt reached ([3]; [cipargamin] 4000 nM, single experiments): 22.1 and 21.4 and 29.4
Final [Na+]cyt reached ([3]; [cipargamin] 8000 nM, MEAN): 34.2
Final [Na+]cyt reached ([3]; [cipargamin] 8000 nM, single experiments): 32.0 and 31.0 and 39.5
IC50 ([3]; 1.5 h, ~90 min exposure, 37 °C, pH 7.1, read-out: IC50 for Na+ dysregulation): > 8000 nM
IC50 ([3]; MEAN, source data of Table 1 (nM there), read-out: IC50 for Na+ dysregulation, MEAN): > 8000 nM
IC50 ([3]; single experiments, source data of Table 1 (nM there), read-out: IC50 for Na+ dysregulation): > 8000 nM
